{"source": "paper PMC10545747", "about": "“Development of cyclopeptide inhibitors of cGAS targeting protein-DNA interaction and phase separation” (Nature Communications, 2023)", "key": {"in vitro": {"assay": "in vitro", "details": "mouse, Cell viability (Fig. S2e)", "protocol": "Cell viability was measured by cell counting kit-8 (TargetMol) according to the manufacturer’s instructions. […]\n(e-g) THP1 cells (e), L929 cells (f) and RAW264.7 cells (g) were exposed to the indicated doses of XQ2 for 48h, the cell viability was measured by CCK8 assay. Data are representative of three independent experiments in (a-g). (Data are presented as mean ± SD, n = 3 independent samples in (a-g), **p < 0.01, ***p < 0.001, ****p < 0.0001 using one-way ANOVA with Dunnett’s post hoc test).\n(§1) Source data are provided as a Source Data file."}, "human cGAS (hcGAS)": {"molecular_target": "human cGAS (hcGAS) (Homo sapiens, UniProt Q8N884)", "sequence (Q8N884 whole entry)": "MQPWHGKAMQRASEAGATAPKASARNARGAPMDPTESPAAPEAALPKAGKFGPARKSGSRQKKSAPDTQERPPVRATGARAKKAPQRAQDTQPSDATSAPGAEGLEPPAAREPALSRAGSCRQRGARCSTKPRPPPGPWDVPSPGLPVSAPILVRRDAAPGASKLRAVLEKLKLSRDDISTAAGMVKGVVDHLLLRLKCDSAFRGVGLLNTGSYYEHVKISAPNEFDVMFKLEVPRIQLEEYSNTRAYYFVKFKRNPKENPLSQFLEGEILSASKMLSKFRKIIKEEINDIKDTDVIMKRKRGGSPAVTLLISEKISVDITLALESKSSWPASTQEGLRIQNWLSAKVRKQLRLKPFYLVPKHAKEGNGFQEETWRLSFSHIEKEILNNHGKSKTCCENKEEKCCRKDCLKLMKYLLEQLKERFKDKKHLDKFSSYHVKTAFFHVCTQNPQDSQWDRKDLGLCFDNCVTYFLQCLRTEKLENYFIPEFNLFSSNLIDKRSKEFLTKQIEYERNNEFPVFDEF", "assay": "biochemical", "details": "MST", "protocol": "The binding ability of XQ2 with Cy5-ISD and XQ2 with human cGAS were tested using NanoTemper Monolith NT.115 instrument (20% LED, 40% MST power) at 25 °C. Serial dilutions of XQ2 were mixed with 10 nM of Cy5-ISD or 100 nM of fluorescent labeled hcGAS, incubated for 10 min at room temperature in HEPES buffer (50 mM HEPES, pH 7.5, 200 mM NaCl, 20 mM MgCl2, 0.05% Tween 20) with or without 1 mM ATP and 0.5 mM GTP or 2 M (NH4)2SO4 (Sigma-Aldrich). Excitation was optimized by varying the power to obtain fluorescence intensities above 200 counts. Data were analyzed by using the MO.Affinity Analysis software."}, "[1]": {"test_system": "murine fibroblast L929 cells", "assay": "qPCR of Ifnb1/Cxcl10 mRNA in L929 cells (ISD or HSV-1)", "assay_type": "cell-based, mouse", "design": "key to Ifnb1 mRNA (Fig. S2c) / Cxcl10 mRNA (Fig. S2c) / Ifnb1 mRNA (Fig. S2d) / Cxcl10 mRNA (Fig. S2d): mRNA level normalized to GAPDH (relative expression)", "protocol": "The indicated cells were stimulated with either ISD (Sangon Biotech), HSV-1 (Provided by Dr. Zhengfan Jiang), HSV60mer (Sangon Biotech), SATE-cddA[70], 2’3’-cGAMP (Invivogen, Cat# tlrl-nacga23-1), ADU-S100 (MedChemExpress, Cat# HY-12885A) or Poly(I:C) (Invivogen, Cat# tlrl-pic) after XQ2 or XQ2B treatment. Total RNA was isolated from indicated cells that incubated with the drugs for indicated time or mice tissues by using NucleoZOL reagent (MACHEREY-NAGEL) according to the manufacturer’s instructions. The quantifications of mRNA levels were carried out by real-time PCR using a PerfectStart® Uni RT&qPCR Kit (TransGen Biotech) on the QuantStudio 5 qPCR machine (Applied Biosystems). Samples were carried out in triplicate and the target CT values were normalized to GAPDH CT values. Primers of qPCR used in this study can be found in Supplementary Table S2. […]\n(c) L929, p = 0.0005 (Ifnb1),\nBMDMs, p = 0.0001 (Ifnb1), p < 0.0001 (Cxcl10).\nrepresentative of three independent experiments in (a-g). (Data are presented as mean ± SD, n = 3 independent\nas §1"}}, "note": "Several values for one entry are separate records, joined by “and”; a condition that tells them apart may be missing. Identical values can stand only once. Square brackets hold non-standard residues; d marks the D form. Peptide text beside a SMILES is read from it.", "data": [{"smiles": "CC(C)C[C@@H]1NC(=O)[C@H](CCCNC(=N)N)NC(=O)[C@H](C(C)C)NC(=O)[C@@H]2CCCN2C(=O)[C@@H](Cc2ccccc2)NC(=O)[C@H](CC(C)C)NC(=O)[C@H](CCCNC(=N)N)NC(=O)[C@H](C(C)C)NC(=O)[C@H](C)NC(=O)[C@@H](Cc2ccccc2)NC1=O", "note": "[XQ2, Cyclo (LfAVRLfPVR)] (cyclo(L[dF]AVRL[dF]PVR))", "values": [{"measurement": "viability at 48 h, 0.23 µM", "setting": "in vitro; L929 cells, L929 (48h), XQ2 0.23 μM", "result": 108, "unit": "%"}, {"measurement": "viability at 48 h, 0.47 µM", "setting": "in vitro; L929 cells, L929 (48h), XQ2 0.47 μM", "result": 90.1, "unit": "%"}, {"measurement": "viability at 48 h, 0.94 µM", "setting": "in vitro; L929 cells, L929 (48h), XQ2 0.94 μM", "result": 83.6, "unit": "%"}, {"measurement": "viability at 48 h, 1.88 µM", "setting": "in vitro; L929 cells, L929 (48h), XQ2 1.88 μM", "result": 85.4, "unit": "%"}, {"measurement": "viability at 48 h, 3.75 µM", "setting": "in vitro; L929 cells, L929 (48h), XQ2 3.75 μM", "result": 90, "unit": "%"}, {"measurement": "viability at 48 h, 7.5 µM", "setting": "in vitro; L929 cells, L929 (48h), XQ2 7.5 μM", "result": 93.1, "unit": "%"}, {"measurement": "viability at 48 h, 15 µM", "setting": "in vitro; L929 cells, L929 (48h), XQ2 15 μM", "result": 86.3, "unit": "%"}, {"measurement": "viability at 48 h, 0.16 µM", "setting": "in vitro; RAW264.7 cells, RAW264.7 (48h), XQ2 0.16 μM", "result": 100, "unit": "%"}, {"measurement": "viability at 48 h, 0.31 µM", "setting": "in vitro; RAW264.7 cells, RAW264.7 (48h), XQ2 0.31 μM", "result": 102, "unit": "%"}, {"measurement": "viability at 48 h, 0.63 µM", "setting": "in vitro; RAW264.7 cells, RAW264.7 (48h), XQ2 0.63 μM", "result": 104, "unit": "%"}, {"measurement": "viability at 48 h, 1.25 µM", "setting": "in vitro; RAW264.7 cells, RAW264.7 (48h), XQ2 1.25 μM", "result": 104, "unit": "%"}, {"measurement": "viability at 48 h, 2.5 µM", "setting": "in vitro; RAW264.7 cells, RAW264.7 (48h), XQ2 2.5 μM", "result": 104, "unit": "%"}, {"measurement": "viability at 48 h, 5 µM", "setting": "in vitro; RAW264.7 cells, RAW264.7 (48h), XQ2 5 μM", "result": 102, "unit": "%"}, {"measurement": "viability at 48 h, 10 µM", "setting": "in vitro; RAW264.7 cells, RAW264.7 (48h), XQ2 10 μM", "result": 103, "unit": "%"}, {"measurement": "Kd", "setting": "human cGAS (hcGAS); absence of ATP/GTP and (NH4)2SO4 (Mock)", "result": "45.3 ± 26.9", "unit": "µM"}, {"measurement": "Kd", "setting": "human cGAS (hcGAS); in the presence of (NH4)2SO4 (2M)", "result": "1.8 ± 0.6", "unit": "µM"}, {"measurement": "Kd", "setting": "human cGAS (hcGAS); in the presence of ATP (1mM) and GTP (0.5mM)", "result": "4.5 ± 1.6", "unit": "µM"}, {"measurement": "Ifnb1 and Cxcl10 expression induced by ISD and HSV-1", "setting": "[1]; L929, 10 μM", "result": "significantly inhibited the expression of Ifnb1 and its downstream gene Cxcl10"}, {"measurement": "Cxcl10 mRNA (Fig. S2d)", "setting": "[1]; L929, HSV-1+XQ2", "result": "14.7732 and 16.7433 and 18.5165"}, {"measurement": "Ifnb1 mRNA (Fig. S2d)", "setting": "[1]; L929, HSV-1+XQ2", "result": "2.433 and 2.873 and 2.57"}, {"measurement": "Cxcl10 mRNA (Fig. S2c)", "setting": "[1]; L929, ISD+XQ2", "result": "490.131 and 497.538 and 429.114"}, {"measurement": "Ifnb1 mRNA (Fig. S2c)", "setting": "[1]; L929, ISD+XQ2", "result": "47.632 and 43.4073 and 39.6029"}, {"measurement": "Cxcl10 mRNA (Fig. S2c)", "setting": "[1]; L929, XQ2 alone", "result": "1.1537 and 1.297 and 1.725"}, {"measurement": "Cxcl10 mRNA (Fig. S2d)", "setting": "[1]; L929, XQ2 alone", "result": "1.1537 and 1.297 and 1.725"}, {"measurement": "Ifnb1 mRNA (Fig. S2c)", "setting": "[1]; L929, XQ2 alone", "result": "1.659 and 1.773 and 1.653"}, {"measurement": "Ifnb1 mRNA (Fig. S2d)", "setting": "[1]; L929, XQ2 alone", "result": "1.659 and 1.773 and 1.653"}]}]}
